Laboratory results as given in US12171821B2, “Toxoplasma gondii vaccine” (priority 2018, dated 2024).
“And” between values parts separate entries of the source, which are not always exact repeats. Equal entries are not always repeated. “Also recorded” adds a separate entry of the source.

How the values were obtained:
[1] = test system: T. gondii ME49 bradyzoites; experiment: qPCR of SAG1, GRA11B, TUB1A on cDNA of infected cat intestinal monolayers; assay type: cell-based, Toxoplasma gondii
Description: FIGS. 6A-B. Quantification of merozoites in cat tissue culture. A) Cat intestinal organoids were disassociated by trypsin then grown as monolayers on glass slides. Slides were divided into three different groups: not supplemented with fatty acid, supplemented with 200 μM oleic acid or supplemented 200 μM linoleic acid. Monolayers were infected with T. gondii MEM bradyzoites purified from brains of chronic infected mice at a 1:10 MOI. Five days after infection, staining for GRA11B and BRP1 along with DAPI, allowed the percentage of vacuoles positive for GRA11B and BRP1out of the total vacuoles was determined. Total number of parasitophorous vacuoles were counted by positive DAPI staining and confirmed by morphology with DIC. At least 50 parasitophorous vacuoles were counted per replicate. Three biological replicates were counted and on average 35% of the total vacuoles were positive far both GRA11B and BRP1 in the linoleic acid supplemented monolayers. *p-value=0.0126 with N=3 by two-tailed unpaired t test. Straining for both BRP1 and GRA11B was used to ensure that merozoite stages were counted. […] BRP1 is a rhoptry protein that was initially found in bradyzoites; however, it is also expressed in merozoite. B) Cat intestinal monolayers were grown as described in panel A, except monolayers were quenched by TRIzol 5 days post-infection, RNA was extracted, and cDNA was synthesized using an oligo (dT) primer to amplify mRNA, Expression of SAG1 and GRA11B were quantified by qPCR and the fold change calculated in comparison with uninfected cells. TUB1A was used to normalize gene expression across samples.
Real-time PCR on ileum cDNA. Z-DNA binding protein deletion mice ice with and without delta-6-desaturase inhibitor treatment were euthanized 7 days post infection. The ileum of each mouse was removed and homogenized in 1 mL of TRIzol. Total RNA was isolated according to manufacturer's protocol (Invitrogen) and treated with amplification grade Dnase I. cDNA was generated using the Invitrogen SuperScript III First-Strand Synthesis kit with random hexamer primers. GRA11B and SAG1 were used as markers of sexual and asexual stages, respectively. The T. gondii housekeeping gene TUB1A was used to normalize target gene expression. Real-time quantitative PCR was performed using Bio-Rad iTaq Universal SYBR Green Supermix on 311 an Applied Biosystems StepOnePlus Real-Time PCR system. The efficiency of each primer set was calculated from the slope of a 1:10 dilution standard curve of tachyzoite gDNA, where E=10^(−1/slope). The Pfaffl method (Pfaffl, 2001), which accounts for differences in efficiencies, was then used to calculate the relative gene expression of GRA11B and SAG1 per sample, in triplicate. Only wells with one melt curve temperature were used, indicating a single product. Primer sequences were as follows: […]

[2] = test system: T. gondii ME49 bradyzoites; experiment: Gametes and intracellular oocyst walls (AO2, 3G4, PCR) in infected cat intestinal monolayers; assay type: cell-based, Toxoplasma gondii
Description: FIGS. 7A-H. Identification of gametes and intracellular oocysts in cat tissue culture. Cat intestinal organoids were disassociated by trypsin then grown as monolayers on glass slides. […] After 7 days, monolayers were incubated with mouse anti-AO2 (panels A-C) or mouse monoclonal IgM 3G4 (panels E-G), The amiloride-sensitive amine oxidase, copper-containing protein 2 (AO2) is an enzyme exclusively expressed in macrogametes and early oocysts and has a possible role in oocyst wall biogenesis. […] 3G4 is a mouse monoclonal antibody produced by immunizing mice with purified oocyst walls, thus it is a marker of oocyst wall biogenesis. Only monolayers supplemented with linoleic acid (G) had positive 3G4 vacuoles. All panels are 20 μm square with a 5 μm white size bar in the lower right corner. D) Markers for macrogamete and microgamete expression were also evaluated by PCR. Cat intestinal monolayers were grown in 24-well plates until confluency and then infected with T. gondii bradyzoites in duplicate using the same conditions as above. 7 days post-infection, RNA was extracted with TRIzol and cDNA was synthesized using an oligo (dT) primer to only amplify mRNA. AO2 was again used as a marker for macrogametes and the expected PCR product is 218 bp. To assess microgamete presence, we selected the gene TgME49_306338, which is overexpressed in the gametes stage, corresponded to day 7 post-infection in cats and has 44% identity to a protein expressed in the flagella of the motile green algae Chlamydomonas reinhardtii. The expected PCR product for TgME49_306338 is 160 bp. TUB1A was used as an input control and results in a 172 bp product. NO RT corresponds to a cDNA synthesis reaction without the addition of reverse transcriptase (RI) as a control for genomic DNA contamination. Equivalent amounts of cDNA per sample were used as a template for each PCR reaction, and the products were separated on an acrylamide gel. […] H) The number of positive oocyst walls stained with 3G4 were quantified. […] The number of positive oocyst walls were counted in each slide and divided by the area of slide in cm^2.
Immunofluorescence. Intestinal organoid monolayers or mouse fecal samples were fixed in 3.7% formaldehyde in PBS for 20 minutes, permeabilized with 0.2% triton X-100 (Sigma) in PBS at room temperature for one hour and then blocked with 3% BSA in PBS at room temperature for one hour. Primary antibody was incubated at 4° C. overnight in 0.2% v/v Triton x-100 and 3% BSA in PBS (1:100 mouse anti-GRA11B, 1:100 rabbit anti-BRP1, 1:100 mouse anti-AO2, 1:50 monoclonal mouse anti-ZO1 (Santa Cruz) or 1:25 mouse 288 IgM anti-oocyst wall 3G4. Sporulated oocysts from mouse feces were dried onto slides, fixed and permeabilized with ice cold acetone for 30 minutes and incubated with 1:20 mouse 4B6 to the visualize the sporocyst. Slides were incubated one hour with the specific secondary antibody (1:500 goat anti-rabbit Alexa Fluor 488 and 1:500 goat anti-mouse Alexa Fluor 594) at room temperature for one hour and then washed 3 times with PBS. Cells nuclei were stained with 10 μM DAPI (Sigma). Slides were mounted in Vectashield antifade mounting medium (VectorLabs). Samples were imaged on Zeiss Axioplan III equipped with a triple-pass (DAPI/fluorescein isothiocyanate [FITC]/Texas Red) emission cube, differential interference contrast optics, and a monochromatic Axiocam camera operated by Zen software (Zeiss) and processed using ImageJ (Fiji packet).
PCR of cat intestinal monolayers. […]

[3] = cat intestinal monolayers cDNA, biological replicates 1 and 2
[4] = cat intestinal monolayers cDNA, biological replicates 1 and 2, wells 1-3

## CCCCC/C=C\C/C=C\CCCCCCCC(=O)O [linoleic acid]
[1]; [3]
  GRA11B Ct mean: 26.44 and 27.75
  SAG1 Ct mean: 19.15 and 19.99
[1]; [4]
  GRA11B raw Ct values: 26.53 and 27.67 and 26.34 and 27.82 and 26.44 and 27.77
  SAG1 raw Ct values: 19.09 and 20.09 and 19.19 and 19.93 and 19.16 and 19.95
[1]; cat intestinal monolayers, 200 μM, 5 days post-infection
  GRA11B expression by qPCR (fold change versus uninfected cells, normalized to TUB1A): significantly more abundant
[2]; cat cells, 20 μM linoleic acid
  oocyst wall production: did not enhance oocyst wall production
[2]; cat intestinal monolayers, 200 μM fatty acid, 7 days of infection
  macrogamete protein AO2 by immunofluorescence: round structures were seen with reactivity to the macrogamete protein AO210; also recorded: only detected by immunofluorescence in the monolayers supplemented with linoleic acid
[2]; cat intestinal monolayers, 200 μM, 7 days post-infection
  AO2 and TgME49_306338 expression by PCR (bands with the correct size): only observed in linoleic acid supplemented monolayers
[2]; cultured cat cells, 200 μM fatty acid, 7 days of infection
  number of positive oocyst walls stained with 3G4: approximately 9 oocyst walls per cm^2
